Data reported in paper PMC12479633, “A Phase IIa, Single-Blind, Placebo-Controlled, Parallel-Group Study to Assess Safety, Tolerability, and Pharmacokinetics/Pharmacodynamics of Brensocatib in Adults with Cystic Fibrosis” (Clinical Pharmacokinetics, 2025).
Values joined by “and” are separate entries in the source; they are usually repeats but may differ in a detail not shown here. Identical values can stand only once. Like-named read-outs stand apart in the source and are kept apart here.

Tests used:
neutrophil elastase (NE) [1] = assay: Active NE in blood (white blood cell pellets) of adults with CF; type: in vivo, human; conditions: for NE, median % reduction relative to baseline: Blood, day 29
Method: (§1) Blood PD samples were collected at screening; predose on days 1, 2, 14, 28, and 29; and at the follow-up visit (day 35). The samples were analyzed at an external service provider to determine the concentrations of active NE, PR3, and CatG in white blood cell pellets using validated enzymatic methods with quantification limits of 87.9 ng/mL for NE and PR3 and 70.3 ng/mL for CatG. The fit-for-purpose methods details were published internally and stored within Insmed’s document repository.
(§2) If a participant experienced an intercurrent event, defined as use of antibiotics during an acute event that could influence NSP levels, the data were not included in the PD analysis. In assessing treatment-emergent adverse events (TEAEs), the “while-on-treatment” strategy was implemented, which encompassed the 28-day period following the final dose of study drug. With this strategy, data collected prior to the occurrence of the intercurrent event, that is, to discontinuation of brensocatib, were included in the analysis.

neutrophil elastase (NE) [2] = assay: NE activity in sputum of adults with CF; type: in vivo, human
From the text: as §2
(§3) On the basis of the comparability of PK between participants with and without concomitant use of CFTR modulators, NSP activity (NE, CatG, PR3) in blood and sputum was analyzed using the combined data sets without the CFTR modulator stratum.

cathepsin G (CatG) [3] = assay: Active CatG in blood (white blood cell pellets) of adults with CF; type: in vivo, human; conditions: for CatG, median % reduction relative to baseline: Blood, day 29
Method: as §1, §2

cathepsin G (CatG) [4] = assay: CatG activity in sputum of adults with CF; type: in vivo, human
From the text: as §2, §3

proteinase 3 (PR3) [5] = assay: Active PR3 in blood (white blood cell pellets) of adults with CF; type: in vivo, human; conditions: for PR3, median % reduction relative to baseline: Blood, day 29
Method: as §1, §2

proteinase 3 (PR3) [6] = assay: PR3 activity in sputum of adults with CF; type: in vivo, human
From the text: as §2, §3

[7] = system: NSP activity (NE, CatG, PR3); assay: Exposure-response of NSP activity reduction (LOESS regression); type: in vivo, human; conditions: particularly in blood
Method: The NSP activity reduction reached a saturation point at approximately 25 mg, as indicated by the plateau of the associated PK measures. The sensitivity of reduction for brensocatib was greatest for CatG, followed by NE, and PR3 (Fig. 6).

neutrophil elastase (NE) [8] = system: neutrophil elastase (NE); design: method as in earlier work; conditions: Healthy adults, cited from earlier work
neutrophil elastase (NE) [9] = system: neutrophil elastase (NE); design: method as in PMID 32897034; conditions: NCFBE, cited from earlier work
[10] = design: method as in PMID 35411669, PMID 29484635; conditions: cited from earlier work
P-glycoprotein (P-gp) = system: P-glycoprotein (P-gp); design: method as in PMID 35411669; conditions: cited from earlier work
[11] = system: breast cancer resistance protein (BCRP); design: method as in PMID 35411669; conditions: cited from earlier work
[12] = design: method as in PMID 39574348; conditions: single dose, cited from earlier work
[13] = over the dose range of 10–40 mg QD

## Cn1c(=O)oc2ccc(-c3ccc(C[C@@H](C#N)NC(=O)[C@@H]4CNCCCO4)cc3)cc21 [Brensocatib]
Neutrophil elastase (NE) [1]; 10 mg QD, n = 6
  NE, median % reduction relative to baseline: 35.3 (n = 6) %
Neutrophil elastase (NE) [1]; 25 mg QD, n = 7
  NE, median % reduction relative to baseline: 56.4 (n = 7) %
Neutrophil elastase (NE) [1]; 40 mg QD, n = 7
  NE, median % reduction relative to baseline: 74.0 (n = 7) %
Neutrophil elastase (NE) [1]; [13]
  median percent reduction of NE activity in blood: 35–74%
Neutrophil elastase (NE) [2]; 10 mg QD, day 29, n = 5
  NE, median % reduction relative to baseline: 40.7 (n = 5) %
Neutrophil elastase (NE) [2]; 25 mg QD, day 29, n = 3
  NE, median % reduction relative to baseline: 77.8 (n = 3) %
Neutrophil elastase (NE) [2]; 40 mg QD, day 29, n = 2
  NE, median % reduction relative to baseline: 69.9 (n = 2) %
Cathepsin G (CatG) [3]; 10 mg QD, n = 6
  CatG, median % reduction relative to baseline: 75.1 (n = 6) %
Cathepsin G (CatG) [3]; 25 mg QD, n = 7
  CatG, median % reduction relative to baseline: 84.9 (n = 7) %
Cathepsin G (CatG) [3]; 40 mg QD, n = 7
  CatG, median % reduction relative to baseline: 91.3 (n = 7) %
Cathepsin G (CatG) [3]; in all doses of brensocatib
  median percent reduction of CatG activity in blood: 75–91%
Cathepsin G (CatG) [4]; 10 mg QD, day 29, n = 5
  CatG, median % reduction relative to baseline: 51.3 (n = 5) %
Cathepsin G (CatG) [4]; 25 mg QD, day 29, n = 3
  CatG, median % reduction relative to baseline: 0 (n = 3) %
Cathepsin G (CatG) [4]; 40 mg QD, day 29, n = 2
  CatG, median % reduction relative to baseline: 0 (n = 2) %
Proteinase 3 (PR3) [5]; 10 mg QD, n = 6
  PR3, median % reduction relative to baseline: 17.3 (n = 6) %
Proteinase 3 (PR3) [5]; 25 mg QD, n = 7
  PR3, median % reduction relative to baseline: 40.8 (n = 7) %
Proteinase 3 (PR3) [5]; 40 mg QD, n = 7
  PR3, median % reduction relative to baseline: 55.0 (n = 7) %
Proteinase 3 (PR3) [5]; [13]
  median percent reduction of PR3 activity in blood: 17–55%
Proteinase 3 (PR3) [6]; 10 mg QD, day 29, n = 5
  PR3, median % reduction relative to baseline: 59.1 (n = 5) %
Proteinase 3 (PR3) [6]; 25 mg QD, day 29, n = 3
  PR3, median % reduction relative to baseline: 67.1 (n = 3) %
Proteinase 3 (PR3) [6]; 40 mg QD, day 29, n = 1
  PR3, median % reduction relative to baseline: −17.0 (n = 1) %
[7]
  dose at which NSP activity reduction reached a saturation point: approximately 25 mg
Neutrophil elastase (NE) [8]; 10 mg, n = 6
  Median % reduction of NE activity in the blood: 34.8 (n = 6) %
Neutrophil elastase (NE) [8]; 25 mg, n = 7
  Median % reduction of NE activity in the blood: 42.6 (n = 7) %
Neutrophil elastase (NE) [8]; 40 mg, n = 7
  Median % reduction of NE activity in the blood: 55.1 (n = 7) %
Neutrophil elastase (NE) [9]; 10 mg, n = 38
  Median % reduction of NE activity in the blood: 30.9% and 30.9 (n = 38) %
Neutrophil elastase (NE) [9]; 25 mg, n = 45
  Median % reduction of NE activity in the blood: 66.5% and 66.5 (n = 45) %
[10]; at steady state
  urinary excretion: approximately 20%
[10]; single doses of 5–120 mg and QD dosing at 10–40 mg
  elimination half-life: 20 to 30 h
[10]; single or multiple dosing
  steady state accumulation: approximately twofold
P-glycoprotein (P-gp)
  substrate status: substrate
[11]
  substrate status: substrate
[12]; adults with varying degrees of renal impairment
  tolerability: well tolerated
[12]
  effect of renal impairment on brensocatib elimination and exposure: not significantly affected
